Consider 30 molecules from ChEMBL document CHEMBL1144604, “Synthesis and biological evaluation of phosphonate derivatives as autotaxin (ATX) inhibitors” (Bioorg Med Chem Lett, 2007).

The target of test [1] is Autotaxin (Homo sapiens) (UniProt Q13822). As to the kind of experiment: Inhibition of human recombinant ATX at 1 uM after 16 hrs; values are per cent of control.
Test [2] has the same target. As to the kind of experiment: Inhibition of human recombinant ATX at 10 uM after 16 hrs; values are per cent of control.
Test [3] shares this target. The test is described as follows: Inhibition of human recombinant ATX at 100 uM after 16 hrs; values are per cent of control.

For `CCCCCCCCCCCCCCCC(=O)N[C@@H](Cc1ccc(OCCC)cc1)C(O)CP(=O)(O)O` (single isomer, unassigned; diastereomer b), the residual activity on Autotaxin (Homo sapiens) [1] came to 100%; at Autotaxin (Homo sapiens) [2], 100%; on Autotaxin (Homo sapiens) [3], 83%.
In the case of `CCCCCCCCCCCCCCCC(=O)N[C@H](Cc1ccc(OCc2ccccn2)cc1)C(=O)CP(=O)(O)O`, the residual activity amounted to 78% on Autotaxin (Homo sapiens) [1], 68% at Autotaxin (Homo sapiens) [2] and 52% at Autotaxin (Homo sapiens) [3].
As to `CCCCCCCCCCCCCCCC(=O)N[C@@H](Cc1ccc(OCCCCC)cc1)C(=O)CP(=O)(O)O`, the residual activity was 95% at Autotaxin (Homo sapiens) [1] and 83% on Autotaxin (Homo sapiens) [2].
Turning to `CCCCCCCCCCCCCCCC(=O)N[C@H](Cc1ccc(OCc2ccccc2)cc1)C(O)CP(=O)(O)O` (single isomer, unassigned; diastereomer b), the residual activity on Autotaxin (Homo sapiens) [1] is 80%; at Autotaxin (Homo sapiens) [2] it was 81%; at Autotaxin (Homo sapiens) [3], 83%.
For `CCCCCCCCCCCCCCCC(=O)N[C@@H](Cc1ccc(OCCCCC)cc1)C(O)CP(=O)(O)O` (single isomer, unassigned; diastereomer b), in that order: 94%, 90% and 70%.
For the molecule `CCCCCCCCCCCCCCCC(=O)N[C@@H](Cc1ccc(OCc2ncc(C)c(OC)c2C)cc1)C(O)CP(=O)(O)O` (stereo in doubt; f18), the figures for the residual activity at Autotaxin (Homo sapiens) [1], at Autotaxin (Homo sapiens) [2] and at Autotaxin (Homo sapiens) [3] were 63%, 21% and 8%, respectively.
`CCCCCCCCCCCCCCCC(=O)N[C@H](Cc1ccc(OC)cc1)C(=O)CP(=O)(O)O`: the residual activity is 84% on Autotaxin (Homo sapiens) [1], 71% on Autotaxin (Homo sapiens) [2] and 32% on Autotaxin (Homo sapiens) [3].
The like results for `CCCCCCCCCCCCCCCC(=O)N[C@@H](Cc1ccc(OC)cc1)C(O)CP(=O)(O)O` (single isomer, unassigned; diastereomer a) were, in that order, 77%, 56% and 36%.
In the case of `CCCCCCCCCCCCCCCC(=O)N[C@H](Cc1ccc(OCc2cc(OCC(F)(F)F)ccn2)cc1)C(O)CP(=O)(O)O` (single isomer, unassigned; diastereomer b), the residual activity stood at 84% on Autotaxin (Homo sapiens) [2] and 64% on Autotaxin (Homo sapiens) [3].
For the molecule `CCCCCCCCCCCCCCCC(=O)N[C@H](Cc1ccc(OCCC(C)C)cc1)C(O)CP(=O)(O)O` (single isomer, unassigned; diastereomer a), the residual activity was 103% on Autotaxin (Homo sapiens) [1], 104% at Autotaxin (Homo sapiens) [2] and 72% on Autotaxin (Homo sapiens) [3].
As for `CCCCCCCCCCCCCCCC(=O)N[C@@H](Cc1ccc(OC)cc1)C(O)CP(=O)(O)O` (stereo in doubt; f22), the residual activity amounted to 84% at Autotaxin (Homo sapiens) [1], 80% at Autotaxin (Homo sapiens) [2] and 69% at Autotaxin (Homo sapiens) [3].
Regarding `CCCCCCCCCCCCCCCC(=O)N[C@@H](Cc1ccc(OCCC(C)C)cc1)C(O)CP(=O)(O)O` (stereo in doubt; f33), the residual activity stood at 104% on Autotaxin (Homo sapiens) [1], 104% on Autotaxin (Homo sapiens) [2] and 82% at Autotaxin (Homo sapiens) [3].
For the molecule `CCCCCCCC/C=C/CCCCCCCC(=O)N[C@@H](Cc1ccc(OCc2ncc(C)c(OC)c2C)cc1)C(O)CP(=O)(O)O` (stereo in doubt; f42), the results for the residual activity at Autotaxin (Homo sapiens) [1], at Autotaxin (Homo sapiens) [2] and at Autotaxin (Homo sapiens) [3] were 77%, 68% and 58%, respectively.
For `CCCCCCCCCCCCCCCC(=O)N[C@H](Cc1ccc(OCCCCC)cc1)C(O)CP(=O)(O)O` (single isomer, unassigned; diastereomer b), in that order: 86%, 82% and 70%.
The like results for `CCCCCCCCCCCCCCCC(=O)N[C@H](Cc1ccc(OCCC)cc1)C(O)CP(=O)(O)O` (stereo in doubt) were, in that order, 80%, 79% and 72%.
Regarding `CCCCCCCCCCCCCCCCCC(=O)N[C@@H](Cc1ccc(OCc2ncc(C)c(OC)c2C)cc1)C(O)CP(=O)(O)O` (single isomer, unassigned; diastereomer b), the residual activity on Autotaxin (Homo sapiens) [2] was 90%; at Autotaxin (Homo sapiens) [3] it was 62%.
For `CCCCCCCCCCCCCC(=O)N[C@H](Cc1ccc(OCc2ncc(C)c(OC)c2C)cc1)C(O)CP(=O)(O)O` (single isomer, unassigned; diastereomer a), in that order: 99% and 67%.
In the case of `CCCCCCCCCCCCCCCC(=O)N[C@@H](Cc1ccc(OCc2cc(OCC(F)(F)F)ccn2)cc1)C(O)CP(=O)(O)O` (stereo in doubt; f3), the values for the residual activity on Autotaxin (Homo sapiens) [1], at Autotaxin (Homo sapiens) [2] and at Autotaxin (Homo sapiens) [3] were 92%, 80% and 32%, respectively.
For the molecule `CCCCCCCCCCCCCCCC(=O)N[C@@H](Cc1ccc(OCC2CCCCC2)cc1)C(O)CP(=O)(O)O` (single isomer, unassigned; diastereomer b), the residual activity on Autotaxin (Homo sapiens) [1], at Autotaxin (Homo sapiens) [2] and at Autotaxin (Homo sapiens) [3] was 80% each time.
For the molecule `CCCCCCCCCCCCCCCC(=O)N[C@H](Cc1ccc(OCCC(C)C)cc1)C(=O)CP(=O)(O)O`, the residual activity worked out at 97% at Autotaxin (Homo sapiens) [1], 101% on Autotaxin (Homo sapiens) [2] and 76% at Autotaxin (Homo sapiens) [3].
For `CCCCCCCCCCCCCCCC(=O)N[C@@H](Cc1ccc(OCCCCC)cc1)C(O)CP(=O)(O)O` (single isomer, unassigned; diastereomer a), in that order: 98%, 83% and 67%.
Turning to `CCCCCCCCCCCCCCCC(=O)N[C@@H](Cc1ccc(OCc2ccccc2)cc1)C(=O)CP(=O)(O)O`, the residual activity was determined as 71% on Autotaxin (Homo sapiens) [2] and 61% on Autotaxin (Homo sapiens) [3].
The like results for `CCCCCCCCCC(=O)N[C@H](Cc1ccc(OCc2ncc(C)c(OC)c2C)cc1)C(O)CP(=O)(O)O` (stereo partly specified) were, in that order, 86% and 30%.
For the molecule `CCCCCCCCCCCCCCCC(=O)N[C@@H](Cc1ccc(OCc2ccccn2)cc1)C(O)CP(=O)(O)O` (single isomer, unassigned; diastereomer b), the figures for the residual activity on Autotaxin (Homo sapiens) [2] and on Autotaxin (Homo sapiens) [3] were 74% and 65%, respectively.
The like results for `CCCCCCCCCCCCCCCC(=O)N[C@H](Cc1ccc(OCCC(C)C)cc1)C(O)CP(=O)(O)O` (single isomer, unassigned; diastereomer b) were, in that order, 104% and 94%.
For `CCCCCCCCCCCCCCCC(=O)N[C@H](Cc1ccc(OCc2ccccc2)cc1)C(=O)CP(=O)(O)O`, in that order: 82% and 76%.
As for `CCCCCCCCCCCCCCCC(=O)N[C@H](Cc1ccc(OCCCCC)cc1)C(=O)CP(=O)(O)O`, the residual activity at Autotaxin (Homo sapiens) [1] came out at 93%; at Autotaxin (Homo sapiens) [2], 84%.
Consider `CCCCCCCCCCCCCCCC(=O)N[C@@H](Cc1ccc(OCCC)cc1)C(=O)CP(=O)(O)O`, for which the values for the residual activity on Autotaxin (Homo sapiens) [2] and at Autotaxin (Homo sapiens) [3] were 97% and 72%, respectively.
The like results for `CCCCCCCC/C=C/CCCCCCCC(=O)N[C@@H](Cc1ccc(OCc2ncc(C)c(OC)c2C)cc1)C(O)CP(=O)(O)O` (single isomer, unassigned; diastereomer a) were, in that order, 45% and 15%.
`CCCCCCCCCCCCCC(=O)N[C@H](Cc1ccc(OCc2ncc(C)c(OC)c2C)cc1)C(O)CP(=O)(O)O` (stereo in doubt; f38): the residual activity at Autotaxin (Homo sapiens) [3] was 35%.

What is called residual activity is the signal under treatment as a percentage of the control signal.
